Assay results: patent publication US20250151727A1, “(S)-ABSCISIC ACID FOR REDUCING FRUIT DROP” (Valent BioSciences LLC, priority 2023, published 2025)

How the values were obtained:
Format in all cases: in vivo
'Orri' mandarin trees [1] = assay: Fruit drop after foliar spray, 'Orri' mandarin, Piketberg, open and shade-netted orchards (Example 2); conditions: 150 ppm; for # Fruit per Tree / % Change in # Fruit per Tree: ProTone SG, 28 days after 100% petal drop
Procedure: ProTone™ SG was applied to mature ‘Orri’ mandarin trees in a commercial orchard near Piketberg (33°04′46.3″S 18°50′04.7″E) in the Western Cape Province of South Africa. Two trials were conducted, one in an orchard covered with permanent shade netting, and the other in an open orchard. The experiment consisted of 5 trees per plot for each of covered and open orchard. S-ABA was applied as a foliar spray at 150 ppm and compared to an untreated control at 3.4 liters per tree for the covered orchard and 2.8 liters per tree for the open orchard. All treatments were applied with Villa 51® at a rate of 6 milliliters per 100 liters of water. Treatments were applied 28 days after 100% petal drop on 29 Nov. 2021. See Results in Table 2, below.

[2] = tested on: 'Nadorcott' mandarin trees; assay: Fruit drop after foliar spray, 'Nadorcott' mandarin, Piketberg (Example 3); conditions: for # Fruit per Tree / % Change in # Fruit per Tree: 28 days after 100% petal drop; for % Change in # Fruit per Tree: vs untreated control
Procedure: ProTone™ SG or Excelero™ SL was applied to mature ‘Nadorcott’ mandarin trees in a commercial orchard near Piketberg (33°04′46.3″S 18°50′04.7″E) in the Western Cape Province of South Africa. The experiment consisted of 5 trees per plot. S-ABA in the form of ProTone™ SG was applied as a foliar spray at 18.5, 37 and 75 ppm and at 37 ppm in the form of Excelero™ SL and compared to an untreated control at 2.4 liters per tree. All treatments were applied with Villa 51® at a rate of 6 milliliters per 100 liters of water. Treatments were applied 28 days after 100% petal drop on 8 Nov. 2022. See Results in Table 3, below.

[3] = tested on: 'Nadorcott' mandarin trees; assay: Fruit drop, 'Nadorcott' mandarin, Piketberg, all plots with ProGibb (Example 4); conditions: for # Fruit per Tree / % Change in # Fruit per Tree: Excelero SL; for % Change in # Fruit per Tree: vs untreated control
Procedure: Excelero™ SL was applied to mature ‘Nadorcott’ mandarin trees in a commercial orchard near Piketberg (33°04′46.3″S 18°50′04.7″E) in the Western Cape Province of South Africa. The experiment consisted of 5 trees per plot. S-ABA was applied at 50 and 100 ppm in the form of Excelero™ SL and compared to an untreated control at 2.4 liters per tree. All plots received application of ProGibb® at 80% and 100% petal fall. All treatments were applied with Villa 51® at a rate of 6 milliliters per 100 liters of water. Treatments were applied 42 and 56 days after 100% petal drop (“DAP”) on 23 November and […], respectively. See Results in Table 4, below.

'Leanri' mandarin trees = assay: Fruit drop, 'Leanri' mandarin, Ashton, all plots with Falgro and girdling (Example 5); conditions: for # Fruit per Tree / % Change in # Fruit per Tree: 37 ppm, 21 days after 100% petal drop; for % Change in # Fruit per Tree: vs untreated control
Procedure: Excelero™ SL was applied to mature ‘Leanri’ mandarin trees in a commercial orchard near Ashton (33°50′57″S, 20°02′15″E) in the Western Cape Province of South Africa. The experiment consisted of 5 trees per plot. S-ABA was applied at 37 ppm in the form of ProTone™ SG and Excelero™ SL and compared to an untreated control at 2.4 liters per tree. All plots received application of Falgro® at 70% and 90% petal fall and a girdling action. All treatments were applied with Villa 51® at a rate of 6 milliliters per 100 liters of water. Treatments were applied 21 days after 100% petal drop on 8 Nov. 2023. See Results in Table 5, below.

'Orri' mandarin trees [4] = assay: Fruit drop, 'Orri' mandarin, Mpumalanga (Example 6); conditions: for # Fruit per Tree / % Change in # Fruit per Tree: Excelero SL; for % Change in # Fruit per Tree: vs untreated control
From the text: Excelero™ SL was applied to mature ‘Orri’ mandarin trees in a commercial orchard near Mpumalanga, South Africa. The experiment consisted of a completely randomized design. S-ABA was applied at 20, 40 and 80 ppm in the form of Excelero™ SL and compared to an untreated control. All treatments were applied with Villa 51® at a rate of 6 milliliters per 100 liters of water. Treatments were applied 14, 21 and 28 days after 100% petal drop (“DAP”). See Results in Table 6, below.

[5] = tested on: 'Midnight Valencia' sweet orange trees; assay: Fruit drop, 'Midnight Valencia' sweet orange, Mpumalanga (Example 7); conditions: for # Fruit per Tree / % Change in # Fruit per Tree: Excelero SL; for % Change in # Fruit per Tree: vs untreated control
From the text: Excelero™ SL was applied to mature ‘Midnight Valencia’ sweet orange trees in a commercial orchard near Mpumalanga, South Africa. The experiment consisted of a completely randomized design. S-ABA was applied at 20, 40 and 80 ppm in the form of Excelero™ SL and compared to an untreated control. All treatments were applied with Villa 51® at a rate of 6 milliliters per 100 liters of water. Treatments were applied 14, 21 and 28 days after 100% petal drop (“DAP”). See Results in Table 7, below.

[6] = 20, 40 and 80 ppm at each of 14, 21 and 28 days after 100% petal drop

Substance: (S)-abscisic acid [S-ABA]
- effect on fruit drop as compared to untreated control ('Orri' mandarin trees [1]): increased fruit drop
- # Fruit per Tree ('Orri' mandarin trees [1]; no shade (open orchard)): 397
- % Change in # Fruit per Tree ('Orri' mandarin trees [1]; no shade (open orchard), vs untreated control (no shade)): −28%
- # Fruit per Tree ('Orri' mandarin trees [1]; shade (permanent shade netting)): 82
- % Change in # Fruit per Tree ('Orri' mandarin trees [1]; shade (permanent shade netting), vs untreated control (shade)): −78%
- # Fruit per Tree ([2]; 18.5 ppm, ProTone SG): 793
- % Change in # Fruit per Tree ([2]; 18.5 ppm, ProTone SG): 3%
- effect on fruit drop as compared to untreated control ([2]; 37 and 75 ppm): reduced fruit drop
- # Fruit per Tree ([2]; 37 ppm, Excelero SL): 1010
- % Change in # Fruit per Tree ([2]; 37 ppm, Excelero SL): 32%
- # Fruit per Tree ([2]; 37 ppm, ProTone SG): 841
- % Change in # Fruit per Tree ([2]; 37 ppm, ProTone SG): 10%
- # Fruit per Tree ([2]; 75 ppm, ProTone SG): 909
- % Change in # Fruit per Tree ([2]; 75 ppm, ProTone SG): 18%
- effect on fruit drop as compared to untreated control ([3]; 50 and 100 ppm at both 42 and 56 days after 100% petal drop): reduced fruit drop
- # Fruit per Tree ([3]; 50 ppm @ 42 DAP): 412
- % Change in # Fruit per Tree ([3]; 50 ppm @ 42 DAP): 35%
- # Fruit per Tree ([3]; 50 ppm @ 56 DAP): 316
- % Change in # Fruit per Tree ([3]; 50 ppm @ 56 DAP): 3%
- # Fruit per Tree ([3]; 100 ppm @ 42 DAP): 387
- % Change in # Fruit per Tree ([3]; 100 ppm @ 42 DAP): 26%
- # Fruit per Tree ([3]; 100 ppm @ 56 DAP): 322
- % Change in # Fruit per Tree ([3]; 100 ppm @ 56 DAP): 5%
- effect on fruit drop as compared to untreated control ('Leanri' mandarin trees; 37 ppm at 21 days after 100% petal drop): reduced fruit drop
- # Fruit per Tree ('Leanri' mandarin trees; Excelero SL): 430
- % Change in # Fruit per Tree ('Leanri' mandarin trees; Excelero SL): 28%
- # Fruit per Tree ('Leanri' mandarin trees; ProTone SG): 398
- % Change in # Fruit per Tree ('Leanri' mandarin trees; ProTone SG): 19%
- effect on fruit drop as compared to untreated control ('Orri' mandarin trees [4]; [6]): reduced fruit drop
- # Fruit per Tree ('Orri' mandarin trees [4]; 20 ppm @ 14 DAP): 222
- % Change in # Fruit per Tree ('Orri' mandarin trees [4]; 20 ppm @ 14 DAP): 17%
- # Fruit per Tree ('Orri' mandarin trees [4]; 20 ppm @ 21 DAP): 257
- % Change in # Fruit per Tree ('Orri' mandarin trees [4]; 20 ppm @ 21 DAP): 36%
- # Fruit per Tree ('Orri' mandarin trees [4]; 20 ppm @ 28 DAP): 196
- % Change in # Fruit per Tree ('Orri' mandarin trees [4]; 20 ppm @ 28 DAP): 4%
- # Fruit per Tree ('Orri' mandarin trees [4]; 40 ppm @ 14 DAP): 222
- % Change in # Fruit per Tree ('Orri' mandarin trees [4]; 40 ppm @ 14 DAP): 17%
- # Fruit per Tree ('Orri' mandarin trees [4]; 40 ppm @ 21 DAP): 234
- % Change in # Fruit per Tree ('Orri' mandarin trees [4]; 40 ppm @ 21 DAP): 24%
- # Fruit per Tree ('Orri' mandarin trees [4]; 40 ppm @ 28 DAP): 250
- % Change in # Fruit per Tree ('Orri' mandarin trees [4]; 40 ppm @ 28 DAP): 32%
- # Fruit per Tree ('Orri' mandarin trees [4]; 80 ppm @ 14 DAP): 255
- % Change in # Fruit per Tree ('Orri' mandarin trees [4]; 80 ppm @ 14 DAP): 35%
- # Fruit per Tree ('Orri' mandarin trees [4]; 80 ppm @ 21 DAP): 213
- % Change in # Fruit per Tree ('Orri' mandarin trees [4]; 80 ppm @ 21 DAP): 13%
- # Fruit per Tree ('Orri' mandarin trees [4]; 80 ppm @ 28 DAP): 207
- % Change in # Fruit per Tree ('Orri' mandarin trees [4]; 80 ppm @ 28 DAP): 10%
- effect on fruit drop as compared to untreated control [5, 6]: reduced fruit drop
- # Fruit per Tree ([5]; 20 ppm @ 14 DAP): 239
- % Change in # Fruit per Tree ([5]; 20 ppm @ 14 DAP): 19%
- # Fruit per Tree ([5]; 20 ppm @ 21 DAP): 263
- % Change in # Fruit per Tree ([5]; 20 ppm @ 21 DAP): 31%
- # Fruit per Tree ([5]; 20 ppm @ 28 DAP): 245
- % Change in # Fruit per Tree ([5]; 20 ppm @ 28 DAP): 22%
- # Fruit per Tree ([5]; 40 ppm @ 14 DAP): 221
- % Change in # Fruit per Tree ([5]; 40 ppm @ 14 DAP): 10%
- # Fruit per Tree ([5]; 40 ppm @ 21 DAP): 246
- % Change in # Fruit per Tree ([5]; 40 ppm @ 21 DAP): 22%
- # Fruit per Tree ([5]; 40 ppm @ 28 DAP): 230
- % Change in # Fruit per Tree ([5]; 40 ppm @ 28 DAP): 14%
- # Fruit per Tree ([5]; 80 ppm @ 14 DAP): 255
- % Change in # Fruit per Tree ([5]; 80 ppm @ 14 DAP): 27%
- # Fruit per Tree ([5]; 80 ppm @ 21 DAP): 256
- % Change in # Fruit per Tree ([5]; 80 ppm @ 21 DAP): 27%
- # Fruit per Tree ([5]; 80 ppm @ 28 DAP): 285
- % Change in # Fruit per Tree ([5]; 80 ppm @ 28 DAP): 42%
